Test results: patent US9278087B2, “Derivative of butylphthalide and preparation method and use thereof” (Shijiazhuang Yiling Pharmaceutical Co., Ltd, priority 2011, dated 2016)
Structures can show the parent of a compound that is named as a salt. Where two headings read alike, the source gives them in different places. Marks after values point to notes of the source that are not given here.

Experiments:
rats with local ischemia [1] = assay: Volume of cerebral infarction in tMCAO rats, gavage administration; assay type: in vivo, Wistar rats; settings: for Volume of cerebral infarction (25 mg/kg group): 25 mg/kg oral (gavage) 10 min after ischemia; for Volume of cerebral infarction (25 mg/kg group) / Volume of cerebral infarction (50 mg/kg group) / Volume of cerebral infarction (100 mg/kg group): 2 hr ischemia, 24 hr reperfusion; for Volume of cerebral infarction (50 mg/kg group): 50 mg/kg oral (gavage) 10 min after ischemia; for Volume of cerebral infarction (100 mg/kg group): 100 mg/kg oral (gavage) 10 min after ischemia; for Effect on the volume of cerebral infarction, in words: oral administration, compared with solvent control group
Description: (§1) Wistar rats, body weight 250˜280 g, were raised separately before and after the surgical operation, and kept at room temperature of 23˜25° C. All the rats were allowed ad libitum access to food and water. tMCAO models were prepared according to the method of longa, et al. Rats were anaesthetized with 10% chloral hydrate (350 mg/kg, i.p.), and the body temperature was maintained at 37±0.5° C. The rat was fixed in supine position onto an operating table. The skin was cut along the midline of the neck, and the common carotid artery (CCA), external carotid artery (ECA) and internal carotid artery (ICA) on the right side were carefully isolated. The ECA was ligated and cut, and straightened in line with the ICA. A small incision was cut on the ECA, and a 4.0 cm long round-head silicified nylon thread with a diameter of 0.26 mm (coated with 0.1% polylysine) was inserted through this incision into the ICA for about 1.85˜2.00 cm, until the starting place of the anterior cerebral artery of the rat, to block the blood supply of the middle cerebral artery. After 2 hr of ischemia, the nylon thread was pulled out carefully, the ECA incision was ligated, and the operational incision was sutured. The animal was returned to the cage for 24 hr reperfusion.
Rats were randomly divided into 12 groups: model control group, water for injection (100 mg/kg), the administration group of the Compound 7 in Example 1 (25, 50, 100 mg/kg), the administration group of the Compound 8 in Example 1 (25, 50, 100 mg/kg), the administration group of DL-3-(3′-hydroxy)-butylphthalide (DL for short) (25, 50, 100 mg/kg). They were orally administered 10 min after the ischemia caused by MCA blockage.
(§2) After reperfusion injury in the rat for 24 hr, the rat was beheaded and the brain was taken out immediately. The olfactory tract, the cerebellum and the low brain stem were removed. The brain was coronally cut into 6 slices (the first slice to the fifth slice was 2 mm/slice, and the sixth slice was 4 mm), and they were rapidly placed into 5 ml solution containing 1.5 ml 4% TTC and 0.1 ml 1 M K2HPO4 to stain (37° C., shielded from light) for 20˜30 min, wherein they are flipped once every 5 min. After the TTC staining, the normal tissue was dark stained and appeared red, and the infarcted tissue appeared white. Each group of brain slices were neatly arranged and were taken photos for preservation. The infarction area in each slice was calculated, and the infarction volume was finally converted by superposition. The infarction volume was expressed in percentage in a cerebral hemisphere, to eliminate the effects of cerebral edema. Brain infarction volume(%)=(volume of the contralateral hemisphere to the operated side−volume of uninfarcted portion of the operated hemisphere)/volume of the contralateral hemisphere to the operated side*100% (4) Experimental Results

[2] = system: mice induced by pentobarbital sodium; assay: Hypnosis test of pentobarbital sodium in dosage above threshold; assay type: in vivo, Kunming mice; settings: for Time for falling asleep / Sleeping time: 25 mg/kg gavage for 30 days, pentobarbital sodium 50 mg/kg i.p.; for Sleeping time: within 60 min; for Effect of improving sleep, in words: oral administration to mice for 30 days, summary of both hypnosis tests
Description: (§3) Source of animals: Kunming mice, 18˜22 g, male, were clean grade animals provided by Guangdong Medical Lab Animal Center. In the breeding room of the experimental animals, the temperature was 22±2° C., the relative humidity was 55˜70%, and the animal feed was provided by Guangdong Medical Lab Animal Center.
(§4) 3 groups of Compound 7, Compound 8, DL-3-(3′-hydroxy)-butylphthalide (DL for short) were set in the experiment, 25 mg/kg respectively. And distilled water control group was additionally set.
(§5) Sample processing: 25 mg respective sample was taken, and added with distilled water to 20 ml, to form a uniform suspension, for use in the test.
(§6) Route for administration: gavage
(§7) 40 male mice with a body weight of 18˜22 g were selected, and randomly divided into 4 groups, 10 mice in each group. They were consecutively administered with samples for 30 days, and 15 min after the administration of the samples by gavage on the 30th day, each group of animals were i.p. injected with 50 mg/kg.b.w pentobarbital sodium, and the injection amount was 0.2 ml/20 g.b.w. The criterion for judging falling asleep was that the righting reflex in a mouse disappeared for 1 min or more. The time for falling asleep and the sleeping time of each group of animals within 60 min were observed after administration of pentobarbital sodium.

[3] = system: mice induced by pentobarbital sodium; assay: Hypnosis test of pentobarbital sodium in dosage below threshold; assay type: in vivo, Kunming mice; settings: for Incidence of sleep / Number of animals falling asleep: 25 mg/kg gavage, pentobarbital sodium 30 mg/kg i.p., within 25 min; for Number of animals falling asleep: 10 animals per group; for Number of animals falling asleep and incidence of sleep compared with control group, in words: pentobarbital sodium in dosage below threshold
Description: as §3, §4, §5, §6
as §7, with “for 28” for “for 30”, “with 30” for “with 50”, “for” for “for falling asleep and”, “the occurrence of sleep” for “the sleeping time”, “within 25” for “within 60”

Solubility in water = assay type: physicochemical
rats with local ischemia [4] = assay type: in vivo
Description: as §1, §2
Rats of the ischemia blocking model in Example 11 were taken, and randomly divided into 12 groups: sham operation group, model control group, (water for injection, 10 mg/kg), 1a group (2.5 mg/kg, 5.0 mg/kg, 10 mg/kg), 1b group (2.5 mg/kg, 5.0 mg/kg, 10 mg/kg), and 1c group (2.5 mg/kg, 5.0 mg/kg, 10 mg/kg). 10 min after ischemia caused by MCA blockage, they were administered intravenously.
The determination of the volume of cerebral infarction was the same to Example 4.

[5] = 2.5 mg/kg intravenous 10 min after ischemia, 2 hr ischemia, 24 hr reperfusion
[6] = 5.0 mg/kg intravenous 10 min after ischemia, 2 hr ischemia, 24 hr reperfusion
[7] = 10.0 mg/kg intravenous 10 min after ischemia, 2 hr ischemia, 24 hr reperfusion

| Structure (SMILES) | Volume of cerebral infarction (25 mg/kg group) (rats with local ischemia [1]) [%] | Volume of cerebral infarction (50 mg/kg group) (rats with local ischemia [1]) [%] | Volume of cerebral infarction (100 mg/kg group) (rats with local ischemia [1]) [%] | Effect on the volume of cerebral infarction, in words (rats with local ischemia [1]) | Time for falling asleep [2] [min] | Sleeping time [2] [min] | Effect of improving sleep, in words [2] | Incidence of sleep [3] | Number of animals falling asleep [3] | Number of animals falling asleep and incidence of sleep compared with control group, in words [3] | Volume of cerebral infarction (2.5 mg/kg group) (rats with local ischemia [4]; [5]) [%] | Volume of cerebral infarction (5.0 mg/kg group) (rats with local ischemia [4]; [6]) [%] | Volume of cerebral infarction (10.0 mg/kg group) (rats with local ischemia [4]; [7]) [%] | other results |
| --- | --- | --- | --- | --- | --- | --- | --- | --- | --- | --- | --- | --- | --- | --- |
| CC(O)CC[C@@H]1OC(=O)c2ccccc21 (single isomer, unassigned; (-)) [Compound 8] | 14.6 | 13.8 | 11.8 | can significantly reduce the volume of cerebral infarction | 3.91 ± 0.99 | 53.28 ± 11.12 | have effects of improving sleep | 80* % | 8* | have significant difference | – | – | – | Effect on the volume of cerebral infarction, in words (rats with local ischemia [1]; listed as S-configuration): decreasing the cerebral infarct volume; Effect of improving sleep, in words ([2]; listed as S-configuration): can improve the sleeping state in animals; Effect of improving sleep, in words ([2]; listed as S-configuration of the Metabolite I): has the effect of improving sleep; Time for falling asleep and sleeping time compared with control group, in words ([2]; pentobarbital sodium in dosage above threshold): have significant difference; Solubility in water, in words (Solubility in water): insoluble in water |
| CC(CC[C@@H]1OC(=O)c2ccccc21)OP(=O)([O-])[O-].[Na+].[Na+] (stereo partly drawn) [Compound 1c, (S)-3-(3′-phosphate ester)butylphthalide disodium salt] | – | – | – | – | – | – | – | – | – | – | 20.6 | 15.8 | 11.7 | – |
| CC(O)CC[C@H]1OC(=O)c2ccccc21 (single isomer, unassigned; (+)) [Compound 7] | 19.8 | 18.9 | – | did not effectively reduce the volume of cerebral infarction | 5.78 ± 1.88 | 41.16 ± 7.80 | does not have the effect of improving sleep | 30% | 3 | – | – | – | – | Effect on the volume of cerebral infarction, in words (rats with local ischemia [1]; listed as R-configuration): cannot affect the cerebral infarct volume; Effect on the volume of cerebral infarction, in words (rats with local ischemia [1]; listed as compound in R-configuration): does not have the effect of reducing the cerebral infarct volume |
| CC(CC[C@@H]1OC(=O)c2ccccc21)OC(=O)CCC(=O)[O-].[Na+] (stereo partly drawn) [Compound 1a, sodium salt of (S)-3-(3′-succinate ester)butylphthalide] | – | – | – | – | – | – | – | – | – | – | 21 | 15.4 | 11.8 | – |
| CC(O)CCC1OC(=O)c2ccccc21 (racemic) [DL, DL-3-(3′-hydroxy)-butylphthalide, reference compound] | 17.2 | 16.4 | 14.5 | can significantly reduce the volume of cerebral infarction | 4.68 ± 1.35 | 45.48 ± 11.23 | have effects of improving sleep | 50% | 5 | have significant difference | – | – | – | – |
| CC(CC[C@@H]1OC(=O)c2ccccc21)OC(=O)CN (stereo partly drawn) [Compound 1b, (S)-3-(3′-glycinate ester)butylphthalide hydrochloride] | – | – | – | – | – | – | – | – | – | – | – | – | – | Volume of cerebral infarction (2.5 mg/kg group) (rats with local ischemia [4]; rat, in vivo): 21.3%; Volume of cerebral infarction (5.0 mg/kg group) (rats with local ischemia [4]; rat, in vivo): 16.0%; Volume of cerebral infarction (10.0 mg/kg group) (rats with local ischemia [4]; rat, in vivo): 12.0% |
